Source: patent US5939096A, “Liposome drug-loading method and composition” (priority 1997, dated 1999)
Where two headings read alike, the source gives them in different places.

Experiments:
[1] = pH 9
[2] = n-octanol/water, cited from earlier work
[3] = not told, cited from earlier work
[4] = Loading and calcium ionophore (A23187)-promoted release of entrapped nalidixic acid
Description: (FIG. 8, solid line) and 60° C. (broken line), respectively.
The experiment was carried out at two different temperatures to investigate how changes in lipid phase (i.e., gel versus liquid-crystalline) affects the penetration of molecules into the bilayer. When the suspension was incubated at 25° C.
A calcium ionophore, A23187, (10 micromolar) was added at either t=700 s (25° C.; FIG. 8--solid line) or at 350 s (60° C.; FIG. 8--broken line), and the fluorescence was monitored over the course of the experiment.

[5] = Permeability coefficient in HPC/cholesterol extruded vesicles; conditions: not told, permeability coefficient P, 60/40 HPC/cholesterol extruded vesicles (Table II)
Description: ^e in 60/40 (mol/mol) HPC/cholesterolextruded vesicles, at 25°
^e in 60/40 (mol/mol) HPC/cholesterolextruded vesicles.

[6] = Table II; cited from earlier work

## O=S(=O)(O)c1cc(O)c2ccc3c(S(=O)(=O)O)cc(S(=O)(=O)O)c4ccc1c2c34 [pyranine, 8-Hydroxypyrene-1,3,6-trisulfonic acid]
[1]
  n-octanol/water partition coefficient Kp: < 3 × 10^-5

## 5(6)-carboxyfluorescein
[2]; pH 6.9
  partition coefficient Kp: 2.8 × 10^-3
[2]; pH 8
  partition coefficient Kp: 6.0 × 10^-5
[3]; pH 7
  permeability coefficient P: 8.1e-05 ×10⁻⁶ cm/s
[3]; pH 8.2
  permeability coefficient P: 7.2e-07 ×10⁻⁶ cm/s

## CCn1cc(C(=O)O)c(=O)c2ccc(C)nc21 [nalidixic acid]
[4]; 25° C.
  loading t1/2: 84 s
[4]; 60° C.
  loading t1/2: 7 s
[4]; 60° C. versus 25° C.
  enhancement of loading rate: one order of magnitude
[5]; 25° C.
  Papp: 0.014 ×10⁻⁶ cm/s
[5]; 60° C.
  Papp: 0.17 ×10⁻⁶ cm/s
[6]
  pKa: 6.13
